Where a name gives a salt, the structure may show the parent alone. Each block holds one molecule with its values, some of them ahead of it.
Assays:
Type in all cases: cell-based
HCT-15 (colon cancer) = assay: Cancer cell growth inhibition, WST-1 colorimetry; details: Homo sapiens, HCT-15, 48 hours
Protocol: (§1) Cultured human cancer cells were added to a 96-well plate. On the following day, a solution of each of the compounds prepared in Examples 13, 23, 29, 36, and 114 (in five concentrations resulting from 10-fold stepwise dilution: 10^−4, 10^−5, 10^−6, 10^−7, or 10^−8 M) was added, followed by incubation for 48 hours. Subsequently, % growth of the cells was measured through colorimetry by use of a WST-1 (Dojindo) reagent for measurement of cell count. From the measurement data, % growth was calculated by use of the following equation, and 50% growth inhibitory concentration (GI50) was calculated from the dose-response curve of each compound: % growth={[(OD as measured after 48 hours from addition of compound)−(OD at time zero)]/[(OD of control as measured after 48 hours)−(OD at time zero)]}×100.

MCF-7 (breast cancer) = assay: Cancer cell growth inhibition, WST-1 colorimetry; details: Homo sapiens, MCF7, MCF-7, 48 hours
Protocol: as §1

MKN-74 (stomach cancer) = assay: Cancer cell growth inhibition, WST-1 colorimetry; details: Homo sapiens, MKN-74, 48 hours
Protocol: as §1

MKN-45 (stomach cancer) = assay: Cancer cell growth inhibition, WST-1 colorimetry; details: Homo sapiens, MKN-45, 48 hours
Protocol: as §1

[1] = tested on: cultured human cancer cells; assay: Cancer cell growth inhibition, WST-1 colorimetry, overall statement; details: result in words, 48 hours
Protocol: as §1

[2] = tested on: Human umbilical venous endothelial cells (HUVECs); assay: Gene expression analysis (GeneChip HuGene FL array) in TNFα-stimulated HUVECs; details: Example 10 at 1 μM, TSA at 10 μM
Protocol: Human umbilical venous endothelial cells (HUVECs) were placed in 10 cm dishes (3×10^5 cells/dish). Two days thereafter, Trichostatin A (TSA, produced by Upstate) dissolved in dimethyl sulfoxide (DMSO) and the compound prepared in Example 10 dissolved in DMSO were individually added to a final concentrations of 10 μM and 1 μM, respectively. Each sample was stimulated with TNFα (final concentration: 10 ng/mL, Genzyme-Techne). Four hours later, total RNA was extracted with ISOGEN (Nippon Gene Co., Ltd.). The subsequent procedure was performed in accordance with the manufacturer's protocol (Affymetrix). From the thus obtained total RNA, mRNA was purified by a conventional method. cDNA was synthesized from the purified mRNA, and then biotin-labeled cRNA was synthesized by in vitro transcription. The cRNA was purified and subjected to heat treatment for fragmentation. The fragmented cRNA was used in gene expression analysis.
Method of gene expression analysis: The thus-prepared fragmented cRNA was injected to a HuGene human FL array (Affymetrix), and allowed to hybridize for 16 hours at 45° C. After washing, streptavidin labeled with phycoerythrin, and biotinylated anti-streptavidin antibody were added to each sample in order to cause reaction. Gene expression information was read by use of a dedicated scanner for GeneChip™ (Hewlett Packard). The thus-obtained information was analyzed with GeneChip Software (Affymetrix) for comparison in terms of level of expression.

[3] = out of 52 genes increased twice or more by TNFα

SMILES: COc1cc(OC)cc(N(Cc2ccnc(-c3cc(OC)c(OC)c(OC)c3)c2)C2CCN(Cc3ccnc(-c4cc(OC)c(OC)c(OC)c4)c3)CC2)c1 [Example 23, 4-[N-(3,5-dimethoxyphenyl)-N-[[2-(3,4,5-trimethoxyphenyl)pyridin-4-yl]methyl]amino]-1-[[2-(3,4,5-trimethoxyphenyl)pyridin-4-yl]methyl]piperidine Trihydrochloride]
GI50 (HCT-15 (colon cancer)): 900 nM
GI50 (MCF-7 (breast cancer)): 600 nM
GI50 (MKN-74 (stomach cancer)): 700 nM
GI50 (MKN-45 (stomach cancer)): 4000 nM
growth inhibitory effect on cultured human cancer cells [1]: strong growth inhibitory effect

SMILES: COc1cc(-c2cc(CN3CCC(N(C)Cc4ccnc(-c5cc(OC)c(OC)c(OC)c5)c4)CC3)ccn2)cc(OC)c1OC [Example 36, 4-[N-methyl-N-[[2-(3,4,5-trimethoxyphenyl)pyridin-4-yl]methyl]amino]-1-[[2-(3,4,5-trimethoxyphenyl)pyridin-4-yl]methyl]piperidine Tetrahydrochloride]
GI50 (HCT-15 (colon cancer)): 1000 nM
GI50 (MCF-7 (breast cancer)): 700 nM
GI50 (MKN-74 (stomach cancer)): 600 nM
GI50 (MKN-45 (stomach cancer)): 2000 nM
growth inhibitory effect on cultured human cancer cells [1]: strong growth inhibitory effect

SMILES: CC(/C=C/C(=O)NO)=C\[C@@H](C)C(=O)c1ccc(N(C)C)cc1 [TSA, Trichostatin A, reference compound]
mRNA expression level of ABC transporter B2 ([2]; TNFα 10 ng/mL, 4 h): 66
mRNA expression level of B94 ([2]; TNFα 10 ng/mL, 4 h): 924
mRNA expression level of BCL3 ([2]; TNFα 10 ng/mL, 4 h): 198
mRNA expression level of Cox-2 ([2]; TNFα 10 ng/mL, 4 h): 30
mRNA expression level of EphrinA1 ([2]; TNFα 10 ng/mL, 4 h): 113
mRNA expression level of Gro1 ([2]; TNFα 10 ng/mL, 4 h): 855
mRNA expression level of I kappa B alpha ([2]; TNFα 10 ng/mL, 4 h): 1363
mRNA expression level of IAP homolog B ([2]; TNFα 10 ng/mL, 4 h): 99
mRNA expression level of ICAM-1 ([2]; TNFα 10 ng/mL, 4 h): 2303
mRNA expression level of IFNGR2 ([2]; TNFα 10 ng/mL, 4 h): 209
mRNA expression level of IL-7R ([2]; TNFα 10 ng/mL, 4 h): 44
mRNA expression level of M-Ras-regulated GEF ([2]; TNFα 10 ng/mL, 4 h): 39
mRNA expression level of MCP-1 ([2]; TNFα 10 ng/mL, 4 h): 46
mRNA expression level of Na/K-ATPase beta-1 ([2]; TNFα 10 ng/mL, 4 h): 148
mRNA expression level of Nef associated factor 1 ([2]; TNFα 10 ng/mL, 4 h): 396
mRNA expression level of OB-cadherin-2 ([2]; TNFα 10 ng/mL, 4 h): 62
mRNA expression level of RDC1 ([2]; TNFα 10 ng/mL, 4 h): 21
mRNA expression level of Spliceosomal Protein Sap 49 ([2]; TNFα 10 ng/mL, 4 h): 79
mRNA expression level of TRAF1 ([2]; TNFα 10 ng/mL, 4 h): 262
mRNA expression level of VCAM-1 ([2]; TNFα 10 ng/mL, 4 h): 96
mRNA expression level of beta-galactoside alpha-2; 6-sialyltransferase ([2]; TNFα 10 ng/mL, 4 h): 19
mRNA expression level of caspase-like apoptosis regulatory protein 2 (clarp) ([2]; TNFα 10 ng/mL, 4 h): 50
mRNA expression level of cytoplasmic antiproteinase 2 (CAP2) ([2]; TNFα 10 ng/mL, 4 h): 37
mRNA expression level of ets-2 ([2]; TNFα 10 ng/mL, 4 h): 38
mRNA expression level of exodus-1 ([2]; TNFα 10 ng/mL, 4 h): 1206
mRNA expression level of fractalkine ([2]; TNFα 10 ng/mL, 4 h): 38
mRNA expression level of junB ([2]; TNFα 10 ng/mL, 4 h): 123
mRNA expression level of lymphotoxin beta ([2]; TNFα 10 ng/mL, 4 h): −40
mRNA expression level of metalloproteinase stromelysin-2 ([2]; TNFα 10 ng/mL, 4 h): 69
mRNA expression level of ninjurin1 ([2]; TNFα 10 ng/mL, 4 h): 150
mRNA expression level of p50-NF-kappa B homolog ([2]; TNFα 10 ng/mL, 4 h): 57
number of genes whose expression was enhanced [2, 3]: 6 genes
number of genes whose expression was inhibited [2, 3]: 25 genes

Further lines, with some results ahead:

GI50 (HCT-15 (colon cancer)): 800 nM
GI50 (MCF-7 (breast cancer)): 700 nM
GI50 (MKN-74 (stomach cancer)): 700 nM
GI50 (MKN-45 (stomach cancer)): 3000 nM
SMILES: COc1ccc(N(Cc2cncc(-c3cc(OC)c(OC)c(OC)c3)c2)C2CCN(Cc3ccnc(-c4cc(OC)c(OC)c(OC)c4)c3)CC2)cc1 [Example 13, 4-[N-(4-methoxyphenyl)-N-[[5-(3,4,5-trimethoxyphenyl)pyridin-3-yl]methyl]amino]-1-[[2-(3,4,5-trimethoxyphenyl)pyridin-4-yl]methyl]piperidine Trihydrochloride]
growth inhibitory effect on cultured human cancer cells [1]: strong growth inhibitory effect

GI50 (HCT-15 (colon cancer)): 800 nM
GI50 (MCF-7 (breast cancer)): 700 nM
GI50 (MKN-74 (stomach cancer)): 400 nM
GI50 (MKN-45 (stomach cancer)): 3000 nM
SMILES: COc1cc(-c2cc(CN3CCC(N(Cc4ccnc(-c5cc(OC)c(OC)c(OC)c5)c4)c4ccc5c(c4)OCO5)CC3)ccn2)cc(OC)c1OC [Example 29, 4-[N-(3,4-methylenedioxyphenyl)-N-[[2-(3,4,5-trimethoxyphenyl)pyridin-4-yl]methyl]amino]-1-[[2-(3,4,5-trimethoxyphenyl)pyridin-4-yl]methyl] piperidine Trihydrochloride]
growth inhibitory effect on cultured human cancer cells [1]: strong growth inhibitory effect

GI50 (HCT-15 (colon cancer)): 800 nM
GI50 (MCF-7 (breast cancer)): 600 nM
GI50 (MKN-74 (stomach cancer)): 200 nM
GI50 (MKN-45 (stomach cancer)): 2000 nM
SMILES: COc1cc(-c2cncc(CN(c3ccc(SC)cc3)C3CCN(Cc4ccnc(-c5cc(OC)c(OC)c(OC)c5)c4)CC3)c2)cc(OC)c1OC [Example 114]
growth inhibitory effect on cultured human cancer cells [1]: strong growth inhibitory effect

— patent publication US20050176764A1, “Medicine for treating cancer” (KOWA CO., LTD, priority 2002, published 2005)
